The text below walks through data of US9738610B2, “Indazole derivatives and uses thereof” (Whitehead Institute for Biomedical Research, priority 2012, dated 2017).

Entries after “also recorded” stand apart in the source; their conditions may differ.

The subject of one experiment is C. albicans CaCi-2. Briefly: CaCi-2 growth inhibition in the presence of 8 μg/ml fluconazole (Alamar Blue). Particulars: Candida albicans, CACI2; 8 μg/mL fluconazole alone in the primary assay; read-out: Basal level of growth inhibition of CaCi-2. Type of experiment: cell-based, Candida albicans. The protocol: Fluconazole was obtained from Sequoia Research Products, Ltd. and prepared in a 2 mg/ml stock solution in phosphate buffered saline (PBS). […] PBS (Catalog No. 21-040-CV) without calcium and magnesium was obtained from Cellgro. Penicillin/Streptomycin (Pen/Strep) was obtained from Gibco and prepared 100× in PBS.
RPMI medium (1×) was prepared by dissolving 10.4 g powdered medium in 800 ml water. A buffer of 34.52 g MOPS was added. While stirring, pH was adjusted to 7.0 with 10 N NaOH. Next, 10 ml uridine solution and 50 ml glucose solution were added. The final volume was adjusted to 1000 ml, and filter sterilized.
The following yeast strains were used in this study: C. albicans CaCi-2. Fungal inoculum was prepared as follows: 500 μl of strain was inoculated from cryopreserved stock into a 250-ml shaker flask containing 30 ml growth medium and shaken overnight at 30° C. The optical density (OD 600) of 1 ml fungal culture in a cuvette was read using a standard optical density reader (Eppendorf BioPhotometer Plus), with growth medium as a background blank. The desired volume of fungal inoculums was diluted to desired volume of fungal inoculums according to the following formula: (1/OD measured)×(Desired Final Volume of Inoculum)×0.3=Volume of fungal culture (μl) to add to desired volume of growth medium. When added to media in wells, this yields a calculated starting OD of the fungal inoculum of 0.00015.
Fluconazole stock solution was added to the fungal inoculum to achieve 8 μg/ml. Pen/Strep was added to the media to a 1% concentration (v/v). A Thermo Combi nL was used to dispense 20 μl/well of assay media into all wells. Geldanamycin was dispensed in positive control wells using Thermo Combi nL for a final concentration of 3 μM. Then, 100 nl of test compound was pinned from compound plates into assay plates using a CyBi-Well pin tool. A further 20 μl/well of culture was dispensed into the assay media in all wells. The plates were incubated in a humidified (90% humidity) Liconic incubator at 37° C. without agitation for 48 hours. Alamar Blue was diluted 1:40 in Ca/Mg-free PBS. To all plates, […] of the diluted Alamar Blue was added to the plates to a final dilution factor of 1:200. The plates were incubated for an additional 2 hours. Then, Relative Fluorescence Intensity (RFU) of each well was read on standard plate reader as a measure of relative fungal growth.
For orientation: Resazurin is reduced to fluorescent resorufin, in cell work by metabolically active cells.

Another experiment deals with CaCi-2. Description: MIC of fluconazole against CaCi-2. The class given is cell-based. The conditions noted are these: Candida albicans; read-out: Minimum inhibitory concentration (MIC) against CaCi-2. The protocol: (§1) In order to identify non-fungitoxic chemosensitizers (“probes” or “probe compounds”) of C. albicans, compounds from the NIH's Molecular Libraries Small Molecule Repository (MLSMR) (mli.nih.gov/mli/secondary-menu/mlscn/ml-small-molecule-repository/) were evaluated in the screening cascade summarized in FIG. 3. The C. albicans strains used in the primary screen and secondary assay 1 (CaCi-2 and CaCi-8, respectively) are both clinical isolates that partially respond to fluconazole treatment (Redding et al., Clin. Infect. Dis. 1994, 18, 240-242). […] In the primary assay, CaCi-2 cells are exposed to 8 μg/mL fluconazole; this induces a basal level of 60-80% growth inhibition with additional suppression of the trailing growth associated with this particular strain (Redding et al., Clin. Infect. Dis. 1994, 18, 240-242).

The test system of a further experiment is CaCi-8. Briefly: MIC of fluconazole against CaCi-8. Type of experiment: cell-based. The conditions noted are these: Candida albicans; read-out: Minimum inhibitory concentration (MIC) against CaCi-8. The protocol: as §1
For experiment [1], the system named is Candida albicans strain SC5314. Description: Cytotoxicity to fluconazole-sensitive strain SC5314. The class given is cell-based.
Experiment [2] concerns Candida albicans strain CaCi-2. Briefly: Cytotoxicity to fluconazole-resistant strain CaCi-2. The class given is cell-based.
Another experiment concerns the target T1, yeast (Saccharomyces cerevisiae, UniProt P00163).
T1 construct: Mitochondrial membranes were prepared from yeast; endogenous in cells; host or cells: yeast (mitochondrial membranes)
Briefly: IC50 values and selectivity of Table 10A (target yeast, anti-target human cytochrome). The class given is biochemical. The protocol: All measurements were performed in triplicate.

Experiment [3] concerns Candida albicans wild-type. Briefly: De novo emergence of fluconazole resistance (colonies after six days). Particulars: I-97 0.5 μM combined with fluconazole 32 mg/L. The class given is cell-based. The protocol: Candida albicans wild-type (WT, FIG. 13, top panel) or rip1/rip1 homozygous deletion mutant (rip1 Δ/Δ, FIG. 13, middle panel) were plated on media in the presence of fluconazole (32 mg/L) or in the absence of fluconazole. The emergence of colonies was monitored after six days.

Experiment [4] relates to Saccharomyces cerevisiae strain W303-1a. Briefly: In vivo inhibition of fungal respiration (growth on glycerol). The conditions noted are these: glycerol medium, 48 hours. The class given is cell-based. The protocol:
Saccharomyces cerevisiae (S. cerevisiae) strain W303-1a was grown overnight in Yeast-Peptone-Dextrose media, washed, and diluted into Yeast Nitrogen Base media with 2.5% glycerol containing compounds at a range of dilutions.

Another experiment has as its system Aspergillus terreus. Description: Aspergillus terreus susceptibility test (CLSI M38-A2). Type of experiment: cell-based. The protocol:
Aspergillus terreus (A. terreus) susceptibility testing was performed as described in Clinical Laboratory Standards Institute document […]-A2 (CLSI […]-A2) (CLSI. Reference Method for Broth Dilution Antifungal Susceptibility Testing of Filamentous Fungi; Approved Standard-Second Edition. CLSI, 940 West Valley Road, Suite 1400, Wayne, Pa. 19087-1898 USA, 2003).

The next experiment has as its target T2, human Complex III (Homo sapiens, UniProt P00156).
T2 construct: Mitochondrial membranes were prepared from yeast (Meisinger et al., Methods Mol. Biol. 2006, 313:33-9.) or HEK293 cells; endogenous in cells; host or cells: HEK293 cells (mitochondrial membranes)
Briefly: In vitro inhibition of Complex III, human enzyme. The class given is biochemical. The conditions noted are these: FIG. 14A curve 2. The protocol:
(§2) Compounds described herein were added to plates in a buffer containing 50 mM Tris-Cl pH 7.3, 10 mM NaN3, 0.01% BSA, and 0.05% Tween-20. Mitochondrial membranes (2-5 μg protein) were added to the buffer, followed by oxidized equine cytochrome C (Sigma) at a final concentration of 50 μM. Reactions were initiated by adding decylubiquinol to a final concentration of 50 μM. Reaction progress was monitored by reading the increase in signal at 550 nm on a Tecan Evo plate reader. […] All measurements were performed in triplicate.

In experiment [5] the target is cytochrome B of S. cerevisiae resistant to known antifungal agents (Saccharomyces cerevisiae, UniProt P00163, L275F). The conditions noted are these: FIG. 14A curve 3. The protocol:
as §2

For experiment [6], the target named is cytochrome B of yeast S. cerevisiae (wild type) (Saccharomyces cerevisiae, UniProt P00163). Briefly: biochemical.
The subject of experiment [7] is C. albicans. Description: Candida albicans susceptibility test (CLSI M27-A3). Type of experiment: cell-based. Particulars: FIG. 9. The protocol:
Candida albicans susceptibility testing was performed as described in Clinical Laboratory Standards Institute document M27-A3 (CLSI M27-A3) (CLSI. Reference Method for Broth Dilution Antifungal Susceptibility Testing of Yeasts; Approved Standard—Third Edition. CLSI, 940 West Valley Road, Suite 1400, Wayne, Pa. 19087-1898 USA, 2003).

Experiment [8] deals with C. albicans. The conditions noted are these: cited from earlier work.
The next experiment concerns fungus. Particulars: read-out: IC50, single-agent antifungal activity; cited from earlier work.

In general, inhibition refers to the change of the read-out against control, counted positive when it falls. As to `OC(Cn1cncn1)(Cn1cncn1)c1ccc(F)cc1F` [fluconazole, reference compound], in the experiment with C. albicans CaCi-2, the inhibition at 8 µg/mL was 60 to 80%. Also, the figures for the MIC in the experiment on CaCi-2 and in the experiment with CaCi-8 were 2 µg/mL and 8 µg/mL, respectively. In addition, the “Effect on SC5314” value in experiment [1] (fluconazole alone) is given as “cytostatic, but not cytotoxic”. In addition, the “Effect on CaCi-2” value in [2] (fluconazole alone) is recorded as “not cytostatic or cytotoxic”.
For orientation: IC50 means the concentration that gives 50% inhibition. At yeast (target is yeast), `COC(=O)Cn1nc(-c2cc(C(F)(F)F)ccc2F)c2cccc(C)c21` [Compound I-97] yielded an IC50 of 4 nM. Moreover, on yeast (target yeast, anti-target human cytochrome), the “Selectivity* (anti-target IC50)/(target IC50)” value amounted to 200. In experiment [3], the “Emergence of resistance to fluconazole” value is given as “prevented the emergence of the resistance to fluconazole”. The “Effect on SC5314” value in [1] (combination with fluconazole) is on record as “cytotoxic”. The “Effect on CaCi-2” value in [2] (combination with fluconazole) was “cytotoxic”.
For the compound `COC(=O)Cn1nc(-c2ccccc2)c2ccccc21` [Compound I-3], the “Inhibitory activity against S. cerevisiae (respiratory growth)” value in experiment [4] is “completely inhibits respiratory growth; also recorded: shows inhibitory activity”. Also, the “Inhibitory activity against A. terreus” value with Aspergillus terreus is listed as “shows inhibitory activity”. Besides, the “Inhibition of human Complex III in vitro” value at human Complex III is recorded as “active”. For the same compound, the “Inhibitory activity against resistant S. cerevisiae” value in experiment [5] is listed as “showed inhibitory activity”. This compound yielded an IC50 in [6] of around 600 nM.
In the case of `c1ccc(COc2cccc(-c3nn(Cc4nnco4)c4ccccc34)c2)cc1` [Compound I-52], the “Inhibitory activity against S. cerevisiae (respiratory growth)” value in experiment [4] is given as “shows inhibitory activity”. For the same compound, the “Inhibitory activity against A. terreus” value in the experiment with Aspergillus terreus is on record as “shows inhibitory activity”. Also, the “Inhibition of C. albicans in absence and presence of fluconazole (FCZ)” value in the experiment on C. albicans [7] is “more active in inhibiting C. albicans in presence of fluconazole (FCZ) than in absence thereof”.
Regarding Plagiochin E, in the experiment with C. albicans [8], the “Concentration that increased yeast susceptibility to fluconazole” value was 2.4 µM. Moreover, the IC50 with fungus is 3800 nM.
